Experimental data reported in article PMC3335988 (Neurochemistry international, 2011).
Counter-ions that a name gives are not always drawn. Like-named read-outs stand apart in the source and are kept apart here. Marks after values point to notes of the source that are not given here.

How the values were obtained:
[1] = target: human GluN1/GluN2A (Homo sapiens, UniProt Q05586+Q12879); assay type: cell-based; conditions: for nH (Hill slope, inhibition): 100 µM glutamate plus 30 µM glycine
[2] = target: T1, rat GluN1/GluN2D (Rattus norvegicus, UniProt P35439+Q62645); assay type: cell-based; conditions: for nH (Hill slope): 30 µM glycine
[3] = target: human GluN1/GluN2C (Homo sapiens, UniProt Q05586+Q14957, INS1047EPP); test: cell-based; assay type: cell-based
[4] = target: rat GluN1/GluN2C (Rattus norvegicus, UniProt P35439+Q00961); assay type: cell-based; conditions: for nH (Hill slope): 30 µM glycine
[5] = target: T2, human GluN1/GluN2D (Homo sapiens, UniProt O15399+Q05586); test: cell-based; assay type: cell-based
[6] = target: T3, rat GluN1/GluN2A (Rattus norvegicus, UniProt P35439+Q00959); test: Two-electrode voltage-clamp recordings, recombinant receptors in Xenopus oocytes; assay type: cell-based; conditions: for nH (Hill slope, inhibition): 100 µM glutamate plus 30 µM glycine; for nH (Hill slope): 30 µM glycine
[7] = target: human GluN1/GluN2B (Homo sapiens, UniProt Q05586+Q13224); test: cell-based; assay type: cell-based; conditions: for nH (Hill slope, inhibition) / nH (Hill slope) / EC50: human GluN1/GluN2B; for nH (Hill slope, inhibition): 100 µM glutamate plus 30 µM glycine; for nH (Hill slope, inhibition) / EC50: -40 mV
[8] = target: T4, rat GluN1/GluN2B (Rattus norvegicus, UniProt P35439+Q00960); test: cell-based; assay type: cell-based; conditions: for nH (Hill slope, inhibition): 100 µM glutamate plus 30 µM glycine; for nH (Hill slope): 30 µM glycine
[9] = system: human and rat NMDA receptor subtypes; test: Two-electrode voltage-clamp, relative agonist efficacy across subtypes; assay type: cell-based; conditions: range over human and rat subtypes; same recording; 30 µM glycine
[10] = target: T3, rat GluN1/GluN2A; conditions: HEK293 cells, 2 mM extracellular Ca2+, ref Vicini et al., 1998; cited from earlier work
[11] = target: T4, rat GluN1/GluN2B; conditions: HEK293 cells, 2 mM extracellular Ca2+, ref Vicini et al., 1998; cited from earlier work
[12] = target: T2, human GluN1/GluN2D; conditions: HEK293 cells, 2 mM extracellular Ca2+, ref Hess et al., 1998; cited from earlier work
[13] = target: T1, rat GluN1/GluN2D; conditions: Table 2, ref Hansen and Traynelis, 2011; cited from earlier work
[14] = rat GluN1/GluN2D, 100 µM glutamate plus 30 µM glycine, -40 mV
[15] = rat GluN1/GluN2C, 100 µM glutamate plus 30 µM glycine, -40 mV
[16] = rat GluN1/GluN2D, 100 µM glutamate plus 30 µM glycine
[17] = rat GluN1/GluN2C, 100 µM glutamate plus 30 µM glycine
[18] = human GluN1/GluN2D, 100 µM glutamate plus 30 µM glycine
[19] = human GluN1/GluN2C, 100 µM glutamate plus 30 µM glycine, -40 mV
[20] = human GluN1/GluN2D, 100 µM glutamate plus 30 µM glycine, -40 mV

T4 sequence (Q00960 27-1482, other chains not shown): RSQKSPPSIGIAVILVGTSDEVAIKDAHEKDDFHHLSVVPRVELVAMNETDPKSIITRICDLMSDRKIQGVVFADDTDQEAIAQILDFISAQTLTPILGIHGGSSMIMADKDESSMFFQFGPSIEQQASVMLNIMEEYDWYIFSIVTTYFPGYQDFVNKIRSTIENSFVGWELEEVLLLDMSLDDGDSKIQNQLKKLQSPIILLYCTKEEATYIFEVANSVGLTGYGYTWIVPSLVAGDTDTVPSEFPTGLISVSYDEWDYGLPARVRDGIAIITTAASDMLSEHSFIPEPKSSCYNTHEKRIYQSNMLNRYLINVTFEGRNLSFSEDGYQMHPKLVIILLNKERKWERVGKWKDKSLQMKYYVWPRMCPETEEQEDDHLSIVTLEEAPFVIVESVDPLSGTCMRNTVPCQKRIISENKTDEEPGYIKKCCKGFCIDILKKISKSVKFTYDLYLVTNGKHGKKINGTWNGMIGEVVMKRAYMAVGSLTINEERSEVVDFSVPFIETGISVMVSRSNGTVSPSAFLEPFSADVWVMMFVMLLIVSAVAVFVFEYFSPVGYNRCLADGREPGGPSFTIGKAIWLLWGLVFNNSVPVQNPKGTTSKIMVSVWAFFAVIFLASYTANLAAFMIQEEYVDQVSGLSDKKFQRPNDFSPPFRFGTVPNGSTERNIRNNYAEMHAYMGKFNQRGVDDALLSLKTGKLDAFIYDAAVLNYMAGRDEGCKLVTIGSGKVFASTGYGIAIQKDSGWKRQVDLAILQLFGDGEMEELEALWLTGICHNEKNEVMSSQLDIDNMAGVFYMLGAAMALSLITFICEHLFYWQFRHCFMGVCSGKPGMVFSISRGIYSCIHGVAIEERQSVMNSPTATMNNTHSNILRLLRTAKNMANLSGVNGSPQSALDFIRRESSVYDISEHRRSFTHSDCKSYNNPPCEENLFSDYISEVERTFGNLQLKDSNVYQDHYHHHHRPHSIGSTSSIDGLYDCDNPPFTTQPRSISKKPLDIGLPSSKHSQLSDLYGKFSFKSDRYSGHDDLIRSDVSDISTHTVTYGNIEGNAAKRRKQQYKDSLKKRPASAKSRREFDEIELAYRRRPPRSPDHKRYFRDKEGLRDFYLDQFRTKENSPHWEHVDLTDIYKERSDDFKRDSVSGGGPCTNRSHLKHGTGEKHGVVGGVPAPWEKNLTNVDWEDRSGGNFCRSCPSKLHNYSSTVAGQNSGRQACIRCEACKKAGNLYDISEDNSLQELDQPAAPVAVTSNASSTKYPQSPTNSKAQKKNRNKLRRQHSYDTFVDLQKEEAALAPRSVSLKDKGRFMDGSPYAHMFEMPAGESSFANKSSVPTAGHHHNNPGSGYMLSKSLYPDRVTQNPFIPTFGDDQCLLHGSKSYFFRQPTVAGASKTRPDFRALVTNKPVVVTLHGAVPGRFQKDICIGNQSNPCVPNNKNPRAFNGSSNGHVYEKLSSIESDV
T3 sequence (Q00959 23-1464, other chains not shown): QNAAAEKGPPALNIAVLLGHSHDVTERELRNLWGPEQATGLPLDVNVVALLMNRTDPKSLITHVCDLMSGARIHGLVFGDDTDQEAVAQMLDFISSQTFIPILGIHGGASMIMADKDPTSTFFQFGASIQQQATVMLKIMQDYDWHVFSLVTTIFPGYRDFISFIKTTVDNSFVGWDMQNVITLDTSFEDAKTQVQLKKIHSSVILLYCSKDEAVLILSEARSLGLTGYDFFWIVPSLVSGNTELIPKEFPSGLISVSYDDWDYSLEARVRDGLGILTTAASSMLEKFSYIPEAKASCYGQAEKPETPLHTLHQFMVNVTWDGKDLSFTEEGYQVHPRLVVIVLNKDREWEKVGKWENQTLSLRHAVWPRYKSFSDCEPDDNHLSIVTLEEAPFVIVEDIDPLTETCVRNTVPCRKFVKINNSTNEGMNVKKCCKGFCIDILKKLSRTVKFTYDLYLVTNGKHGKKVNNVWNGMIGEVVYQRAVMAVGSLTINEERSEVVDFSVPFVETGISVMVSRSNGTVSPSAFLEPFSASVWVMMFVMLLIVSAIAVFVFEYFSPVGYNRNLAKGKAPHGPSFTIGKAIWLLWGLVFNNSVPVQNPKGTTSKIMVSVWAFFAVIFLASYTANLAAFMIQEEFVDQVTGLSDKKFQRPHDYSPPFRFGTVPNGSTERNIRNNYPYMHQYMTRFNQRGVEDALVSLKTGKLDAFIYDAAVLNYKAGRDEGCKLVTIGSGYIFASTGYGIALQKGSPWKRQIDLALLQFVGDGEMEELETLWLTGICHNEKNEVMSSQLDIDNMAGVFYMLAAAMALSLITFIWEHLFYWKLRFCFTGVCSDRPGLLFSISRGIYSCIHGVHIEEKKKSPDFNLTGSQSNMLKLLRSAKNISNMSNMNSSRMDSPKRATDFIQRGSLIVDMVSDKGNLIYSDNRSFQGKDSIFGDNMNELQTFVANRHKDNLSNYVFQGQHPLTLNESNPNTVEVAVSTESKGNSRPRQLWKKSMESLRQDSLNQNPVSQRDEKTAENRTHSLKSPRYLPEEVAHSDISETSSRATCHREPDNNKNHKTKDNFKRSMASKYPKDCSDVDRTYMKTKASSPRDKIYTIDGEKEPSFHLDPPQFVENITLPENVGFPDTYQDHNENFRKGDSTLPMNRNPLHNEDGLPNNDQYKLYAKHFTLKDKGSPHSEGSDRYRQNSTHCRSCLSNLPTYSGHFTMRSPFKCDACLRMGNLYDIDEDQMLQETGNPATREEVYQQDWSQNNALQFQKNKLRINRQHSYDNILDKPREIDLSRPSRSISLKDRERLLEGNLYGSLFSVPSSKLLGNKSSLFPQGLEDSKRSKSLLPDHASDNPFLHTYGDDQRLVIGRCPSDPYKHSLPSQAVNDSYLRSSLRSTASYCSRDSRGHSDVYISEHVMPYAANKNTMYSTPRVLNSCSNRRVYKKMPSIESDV
T1 sequence (Q62645 28-1323, other chains not shown): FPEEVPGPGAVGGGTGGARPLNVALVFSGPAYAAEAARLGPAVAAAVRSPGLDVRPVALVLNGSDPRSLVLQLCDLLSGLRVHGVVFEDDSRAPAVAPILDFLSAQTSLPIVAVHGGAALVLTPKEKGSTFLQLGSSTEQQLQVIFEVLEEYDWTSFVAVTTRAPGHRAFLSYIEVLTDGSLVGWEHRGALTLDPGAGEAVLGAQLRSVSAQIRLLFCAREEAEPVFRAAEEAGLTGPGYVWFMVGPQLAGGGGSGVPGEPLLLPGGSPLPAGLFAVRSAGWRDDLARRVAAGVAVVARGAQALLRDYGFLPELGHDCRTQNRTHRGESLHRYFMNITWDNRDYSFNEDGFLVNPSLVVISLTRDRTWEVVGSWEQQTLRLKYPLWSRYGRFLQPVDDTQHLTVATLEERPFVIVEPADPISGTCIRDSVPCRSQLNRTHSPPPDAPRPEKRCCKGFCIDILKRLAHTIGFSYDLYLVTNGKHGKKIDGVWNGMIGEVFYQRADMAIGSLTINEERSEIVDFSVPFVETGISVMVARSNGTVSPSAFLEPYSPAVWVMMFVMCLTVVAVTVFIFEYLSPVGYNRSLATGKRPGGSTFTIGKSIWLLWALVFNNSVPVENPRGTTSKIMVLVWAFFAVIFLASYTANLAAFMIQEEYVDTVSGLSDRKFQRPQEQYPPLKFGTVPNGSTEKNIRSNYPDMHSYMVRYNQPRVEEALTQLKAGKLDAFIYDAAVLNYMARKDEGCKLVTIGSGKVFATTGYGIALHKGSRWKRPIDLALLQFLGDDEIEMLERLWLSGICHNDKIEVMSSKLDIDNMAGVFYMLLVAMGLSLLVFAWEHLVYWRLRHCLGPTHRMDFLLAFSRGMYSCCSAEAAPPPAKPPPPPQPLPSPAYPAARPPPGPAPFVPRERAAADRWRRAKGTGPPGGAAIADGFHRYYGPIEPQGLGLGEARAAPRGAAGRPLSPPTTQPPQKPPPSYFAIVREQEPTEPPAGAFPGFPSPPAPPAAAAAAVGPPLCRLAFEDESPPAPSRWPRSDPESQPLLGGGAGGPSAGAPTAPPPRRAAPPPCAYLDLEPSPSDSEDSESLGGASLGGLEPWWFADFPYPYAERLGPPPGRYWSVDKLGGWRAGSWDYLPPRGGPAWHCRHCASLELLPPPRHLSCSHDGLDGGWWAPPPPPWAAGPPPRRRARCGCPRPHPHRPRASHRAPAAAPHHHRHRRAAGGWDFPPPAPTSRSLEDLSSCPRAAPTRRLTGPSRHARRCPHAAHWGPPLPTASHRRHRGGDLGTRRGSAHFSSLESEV

CN[C@]1(c2ccccc2Cl)CCCCC1=O [(+)ketamine, S-(+)-ketamine hydrochloride]
nH (Hill slope, inhibition) ([1]; -40 mV): 1.0
IC50 fold lower at rat compared to corresponding human subtype ([2]; GluN1/GluN2D, rat vs human): 1.7 fold
nH (Hill slope, inhibition) [2, 14]: 1.0
IC50 [3]: 0.79 ± 0.04 µM
nH (Hill slope, inhibition) [3]: 0.9
nH (Hill slope, inhibition) [4, 15]: 1.0
IC50 [5]: 2.4 ± 0.1 µM
nH (Hill slope, inhibition) [5]: 0.9
nH (Hill slope, inhibition) ([6]; rat GluN1/GluN2A, -40 mV): 1.0
nH (Hill slope, inhibition) [7]: 1.0
IC50 fold lower at rat compared to corresponding human subtype ([8]; GluN1/GluN2B, rat vs human): 1.6 fold
nH (Hill slope, inhibition) ([8]; rat GluN1/GluN2B, -40 mV): 0.9

COc1ccc(OCC2c3cc(OC)c(OC)cc3CCN2C(=O)c2cccc(Cl)c2)cc1 (centres unmarked) [CIQ, (3-chlorophenyl) [3,4-dihydro-6,7-dimethoxy-1-[(4-methoxyphenoxy)methyl]-2(1H)-isoquinolinyl]methanone]
maximal potentiation compared to NMDA receptor currents in the absence of CIQ [2, 16]: 240 ± 20
nH (Hill slope, potentiation) [2, 16]: 1.3
nH (Hill slope, potentiation) ([3]; human GluN1/GluN2C, 100 µM glutamate plus 30 µM glycine): 1.6
maximal potentiation compared to NMDA receptor currents in the absence of CIQ [4, 17]: 260 ± 30
nH (Hill slope, potentiation) [4, 17]: 1.1
maximal potentiation compared to NMDA receptor currents in the absence of CIQ [5, 18]: 250 ± 10
nH (Hill slope, potentiation) [5, 18]: 1.3

CN[C@H](CC(=O)O)C(=O)O [NMDA, N-methyl-D-aspartate]
nH (Hill slope) ([1]; 30 µM glycine): 1.3
EC50 ([1]; continuous presence of 30 µM glycine, -40 mV): 68 ± 3 µM
nH (Hill slope) ([2]; rat GluN1/GluN2D): 1.7
EC50 ([2]; rat GluN1/GluN2D, continuous presence of 30 µM glycine, -40 mV): 7.9 ± 0.9 µM
EC50 [3]: 19 ± 1 µM
nH (Hill slope) [3]: 1.2
nH (Hill slope) ([4]; rat GluN1/GluN2C): 1.4
EC50 ([4]; rat GluN1/GluN2C, continuous presence of 30 µM glycine, -40 mV): 19 ± 2 µM
EC50 [5]: 6.7 ± 0.2 µM
nH (Hill slope) [5]: 2.1
nH (Hill slope) ([6]; rat GluN1/GluN2A): 1.5
EC50 ([6]; rat GluN1/GluN2A, continuous presence of 30 µM glycine, -40 mV): 71 ± 9 µM
nH (Hill slope) ([7]; 30 µM glycine): 1.4
EC50 ([7]; continuous presence of 30 µM glycine): 23 ± 2 µM
nH (Hill slope) ([8]; rat GluN1/GluN2B): 1.7
EC50 ([8]; rat GluN1/GluN2B, continuous presence of 30 µM glycine, -40 mV): 21 ± 4 µM
maximal activation compared to maximal activation by the full agonist glutamate [9]: 69–89%

COc1ccc2nc(/C=C/c3cccc([N+](=O)[O-])c3)n(-c3ccc(C(=O)O)cc3)c(=O)c2c1 [QNZ46, (E)-4-(6-methoxy-2-(3-nitrostyryl)-4-oxoquinazolin-3(4H)-yl)-benzoic acid]
nH (Hill slope, inhibition) [2, 14]: 1.0
nH (Hill slope, inhibition) [3, 19]: 1.0
IC50 fold higher at rat compared to human ([4]; GluN1/GluN2C, rat vs human): 1.2 fold
nH (Hill slope, inhibition) [4, 15]: 1.2
nH (Hill slope, inhibition) [5, 20]: 1.0
IC50 [7]: > 100 µM
IC50 [8]: > 100 µM

NC(=NCc1ccc(Cl)cc1)SCCCc1cnc[nH]1 [clobenpropit, N-(4-chlorobenzyl)-S-[3-(4(5)-imidazolyl)propyl]isothiourea dihydrobromide]
nH (Hill slope, inhibition) ([1]; -40 mV): 1.0
nH (Hill slope, inhibition) [2, 14]: 0.9
nH (Hill slope, inhibition) [3, 19]: 0.9
nH (Hill slope, inhibition) [4, 15]: 0.8
nH (Hill slope, inhibition) [5, 20]: 1.0
IC50 fold higher at rat compared to human ([6]; GluN1/GluN2A, rat vs human): 1.9 fold
nH (Hill slope, inhibition) [7]: 1.0
nH (Hill slope, inhibition) ([8]; rat GluN1/GluN2B, -40 mV): 1.3

OC(CN1CCC(Cc2ccc(F)cc2)CC1)c1ccc(Cl)cc1 (stereo not drawn) [eliprodil, α-(4-chlorophenyl)-4-[(4-fluorophenyl)methyl]-1-piperidineethanol]
nH (Hill slope, inhibition) [7]: 1.3
nH (Hill slope, inhibition) ([8]; rat GluN1/GluN2B, -40 mV): 1.2

N[C@@H](CCC(=O)O)C(=O)O [glutamate, L-glutamic acid]
τdeactivation glutamate (weighted time constant) [10]: 54 ^k ms
nH (Hill slope) ([1]; 30 µM glycine): 1.3
nH (Hill slope) ([2]; rat GluN1/GluN2D): 1.5
nH (Hill slope) [3]: 1.6
τdeactivation glutamate (weighted time constant) [11]: 287 ^k ms
nH (Hill slope) ([4]; rat GluN1/GluN2C): 1.4
τdeactivation glutamate (weighted time constant) [12]: 6300 ^a ms
nH (Hill slope) [5]: 1.5
nH (Hill slope) ([6]; rat GluN1/GluN2A): 1.4
nH (Hill slope) ([7]; 30 µM glycine): 1.8
τdeactivation following removal of glutamate [13]: > 2 s
nH (Hill slope) ([8]; rat GluN1/GluN2B): 1.5

NCC(=O)O [glycine]
nH (Hill slope) ([1]; 100 µM glutamate): 1.3
EC50 [3]: 0.25 ± 0.01 µM
nH (Hill slope) [3]: 1.6
τdeactivation glycine (weighted time constant) [12]: 1800 ^a ms
EC50 [5]: 0.12 ± 0.01 µM
nH (Hill slope) [5]: 1.8
nH (Hill slope) ([7]; 100 µM glutamate): 1.7
EC50 ([7]; continuous presence of 100 µM glutamate): 0.29 ± 0.04 µM

CC(C(O)c1ccc(O)cc1)N1CCC(Cc2ccccc2)CC1 (stereo not drawn) [ifenprodil, (1R*,2S*)-erythro-2-(4-benzylpiperidino)-1-(4-hydroxyphenyl)-1-propanol hemitartrate]
nH (Hill slope, inhibition) ([6]; rat GluN1/GluN2A, -40 mV): 1.2
nH (Hill slope, inhibition) [7]: 1.1
nH (Hill slope, inhibition) ([8]; rat GluN1/GluN2B, -40 mV): 1.2

CC12CC3CC(C)(C1)CC(N)(C3)C2 [memantine, memantine hydrochloride]
nH (Hill slope, inhibition) ([1]; -40 mV): 1.1
nH (Hill slope, inhibition) [3]: 1.0
nH (Hill slope, inhibition) [5]: 0.9
nH (Hill slope, inhibition) [7]: 1.0
